The record followed here is patent US11844786B2 (ADEPTIO PHARMACEUTICALS LIMITED, priority 2017, dated 2023).

The assay concerns amphetamine-induced rats. The note with it: Study 1, 2.5 mg/kg, compared to vehicle-amphetamine group. Here is the method: Locomotor activity of the rats was tested in open field arena.

Molecules are shown by their SMILES.

As for `COc1cc2c(cc1OC)[C@@H]1C[C@H](O)[C@@H](CC(C)C)CN1CC2` [(−)-α-DHTBZ, (2S, 3S, 11bS)-3-isobutyl-9,10-dimethoxy-1,3,4,6,7,11b-hexahydro-2H-pyrido[2,1,a]isoquinolin-2-ol], the stereotypic behaviour entry was “did not lead to lower locomotor activity or reduced stereotypic behaviour”. Besides, the “locomotor activity (distance travelled)” value (listed as (−)-α-isomer) was “very little, if any, reduction”.
